Consider 1 compound from patent publication US20030152637A1, “Local anesthetic, and method of use” (priority 2001, published 2003).

Series [1] in a line: In-vitro release of bupivacaine, USP Apparatus 2 Paddle Method, pH 3.0. It counts as physicochemical. How it is done: The in-vitro dissolution range described above may be determined by subjecting the local anesthetic formulation to in-vitro conditions specified by the USP II Paddle Method, 100 RPM, 37 degrees Celsius, pH 3.0 in 900 ml of 10 mM sodium phosphate buffer.
The in-vitro release of bupivacaine from the microcapsules of Examples 1 and 2 was examined. Dissolution was performed by using USP Apparatus 2 Paddle Method <711>at 100 rpm at 37° C. A 80 mg±3 mg of sample, irrespective of microcapsules formulation, was employed per vessel containing 900 mL of 10 mM Sodium Phosphate Buffer, pH 3.0. The samples (clear solution) were withdrawn at preset time intervals and analyzed for bupivacaine base by HPLC. The HPLC conditions are:
(§1) The in-vitro release of bupivacaine from the microspheres of Examples 2 (batches 1-4), 2A, 3, and 4 was examined. Dissolution was performed by using USP Apparatus 2 Paddle Method at 100 rpm at 37° C. A 80 mg±3 mg of sample, irrespective of microsphere formulation, was employed per vessel containing 900 mL of 10 mM Sodium Phosphate Buffer, pH 3.0. The samples (clear solution) were withdrawn at preset time intervals and analyzed for bupivacaine base by HPLC.
as §1, with “2B” for “2 (batches 1-4), 2A, 3, and 4”, “Method <711>” for “Method”, “HPLC. The following 24 hour dissolution release rates in Table 7B are preferred release rates which were based on batches made in accordance with the formulation of Example 2B (10 Kg scale batches).” for “HPLC.”

The conditions of series [2]: Moore et al. 1976; cited from earlier work.

The structures appear in SMILES notation.

With `CCCCN1CCCCC1C(=O)Nc1c(C)cccc1C` (stereo not drawn) [Bupivacaine base], the “In Vitro Release of Bupivacaine (Cumulative Release %)” value in series [1] (0.5 h) is 96.5%; in series [1] (1 h), 97.09%; in series [1] (2 h) it was 97.035%; in series [1] (3 h), 97.275%; in series [1] (4 h) it was 97.665%. The “plasma bupivacaine level at which systemic toxic reactions are believed to occur” value in series [2] is reported as 4000 ng/mL.
